The values that follow come from ChEMBL document CHEMBL5375952, “Discovery of Novel 8-Hydroxyquinoline Derivatives with Potent In Vitro and In Vivo Antifungal Activity” (J Med Chem, 2023).

The subject of series [1] is Nakaseomyces glabratus. The series is described as follows: Antifungal activity against Candida glabrata 202 assessed as fungal growth inhibition incubated for 48 hrs by broth microdilution method. The format is functional. In general terms: Dilution methods test growth across graded concentrations, often in twofold steps.
Series [2] has as its system Candida parapsilosis. The series is described as follows: Antifungal activity against Candida parapsilosis 105 assessed as fungal growth inhibition incubated for 48 hrs by broth microdilution method. Format: functional. The settings on record: Lodderomyces parapsilosis.
In series [3] the test system is Candida albicans. Briefly: Antifungal activity against Candida albicans 22 assessed as fungal growth inhibition incubated for 48 hrs by broth microdilution method. Format: functional.
Series [4] deals with Candida tropicalis. The series is described as follows: Antifungal activity against Candida tropicalis 178 assessed as fungal growth inhibition incubated for 48 hrs by broth microdilution method. Format: functional.
Series [5] can be described thus: Cytotoxicity against human Caco-2 cells assessed as cell growth inhibition incubated for 24 hrs by CCK8 assay. Format: toxicity, cell-based. (In general: Formazan colour is commonly taken as a measure of viable cells.)
Series [6] has as its system Candida albicans. Briefly: Antifungal activity against Candida albicans 21 assessed as fungal growth inhibition incubated for 48 hrs by broth microdilution method. Format: functional.
In series [7] the test system is Cryptococcus neoformans. The series is described as follows: Antifungal activity against Cryptococcus neoformans 443 assessed as fungal growth inhibition incubated for 48 hrs by broth microdilution method. Format: functional.
The test system of series [8] is Nakaseomyces glabratus. The series is described as follows: Antifungal activity against Candida glabrata 205 assessed as fungal growth inhibition incubated for 48 hrs by broth microdilution method. Format: functional.
For series [9], the system named is Cryptococcus neoformans. Briefly: Antifungal activity against Cryptococcus neoformans 444 assessed as fungal growth inhibition incubated for 48 hrs by broth microdilution method. Format: functional.
Series [10] relates to Nakaseomyces glabratus. Briefly: Antifungal activity against Candida glabrata 201 assessed as fungal growth inhibition incubated for 48 hrs by broth microdilution method. The format is functional.
The test system of series [11] is Candida tropicalis. The series is described as follows: Antifungal activity against Candida tropicalis 184 assessed as fungal growth inhibition incubated for 48 hrs by broth microdilution method. Format: functional.
The subject of series [12] is Candida tropicalis. The series is described as follows: Antifungal activity against Candida tropicalis 176 assessed as fungal growth inhibition incubated for 48 hrs by broth microdilution method. Format: functional.
Series [13] relates to Pichia kudriavzevii. Briefly: Antifungal activity against Candida krusei 477 assessed as fungal growth inhibition incubated for 48 hrs by broth microdilution method. Format: functional.
Series [14] relates to Pichia kudriavzevii. The series is described as follows: Antifungal activity against Candida krusei 68 assessed as fungal growth inhibition incubated for 48 hrs by broth microdilution method. The format is functional.
Series [15] concerns Candida parapsilosis. Briefly: Antifungal activity against Candida parapsilosis 107 assessed as fungal growth inhibition incubated for 48 hrs by broth microdilution method. Format: functional. The settings on record: Lodderomyces parapsilosis.
For series [16], the system named is Aspergillus fumigatus. The series is described as follows: Antifungal activity against Aspergillus fumigatus 023-12 assessed as fungal growth inhibition incubated for 48 hrs by broth microdilution method. Format: functional.
In series [17] the test system is Pichia kudriavzevii. Briefly: Antifungal activity against Candida krusei 69 assessed as fungal growth inhibition incubated for 48 hrs by broth microdilution method. Format: functional.
For series [18], the system named is Cryptococcus neoformans. The series is described as follows: Antifungal activity against Cryptococcus neoformans 445 assessed as fungal growth inhibition incubated for 48 hrs by broth microdilution method. The format is functional.
In series [19] the test system is Aspergillus fumigatus. The series is described as follows: Antifungal activity against Aspergillus fumigatus A assessed as fungal growth inhibition incubated for 48 hrs by broth microdilution method. The format is functional.
Series [20] relates to Aspergillus fumigatus. The series is described as follows: Antifungal activity against Aspergillus fumigatus 7544 assessed as fungal growth inhibition incubated for 48 hrs by broth microdilution method. Format: functional.
Series [21] deals with Candida parapsilosis. The series is described as follows: Antifungal activity against Candida parapsilosis 125 assessed as fungal growth inhibition incubated for 48 hrs by broth microdilution method. Format: functional. The settings on record: Lodderomyces parapsilosis.
In series [22] the test system is Candida albicans. Briefly: Antifungal activity against Candida albicans SC5314 assessed as fungal growth inhibition incubated for 48 hrs by broth microdilution method. The format is functional.

Values after ≈ are worked out from the molar mass of the structure shown. A value given as a limit tells only on which side of the number the result lay.

The term MIC denotes the lowest concentration that inhibits growth of the organism. The term IC50 denotes the concentration at which inhibition is half-maximal.

`COc1ccccc1C(NC(=O)Cc1ccccc1)c1ccc2cccnc2c1O` (configuration not stated): the minimal inhibitory concentration (MIC) in the series with Nakaseomyces glabratus [1] is 0.125 µg/mL (≈ 0.314 µM); in the series with Candida parapsilosis [2], 0.125 µg/mL (≈ 0.314 µM); in the series with Candida albicans [3], 0.125 µg/mL (≈ 0.314 µM); in the series on Candida tropicalis [4], above 64 µg/mL; in the series on Candida albicans [6] it was below 0.125 µg/mL; with Cryptococcus neoformans [7], 0.125 µg/mL (≈ 0.314 µM). Further, the minimum inhibitory concentration (MIC) is 0.5 µg/mL (≈ 1.25 µM) in the series with Nakaseomyces glabratus [8]; 0.125 µg/mL (≈ 0.314 µM) with Cryptococcus neoformans [9]; 0.125 µg/mL (≈ 0.314 µM) with Nakaseomyces glabratus [10]; above 64 µg/mL with Candida tropicalis [11]; above 64 µg/mL with Candida tropicalis [12]; 0.25 µg/mL (≈ 0.627 µM) in the series on Pichia kudriavzevii [13]. In addition, the MIC with Pichia kudriavzevii [14] turned out to be 0.125 µg/mL (≈ 0.314 µM); in the series on Candida parapsilosis [15], 0.125 µg/mL (≈ 0.314 µM); with Aspergillus fumigatus [16], 2 µg/mL (≈ 5.02 µM); with Pichia kudriavzevii [17], 0.25 µg/mL (≈ 0.627 µM); with Cryptococcus neoformans [18] it was 0.5 µg/mL (≈ 1.25 µM); with Aspergillus fumigatus [19], 2 µg/mL (≈ 5.02 µM). Also, the MIC with Aspergillus fumigatus [20] came out at 2 µg/mL (≈ 5.02 µM); in the series with Candida parapsilosis [21], 0.125 µg/mL (≈ 0.314 µM); in the series on Candida albicans [22] it was 0.125 µg/mL (≈ 0.314 µM). Also, in series [5], the IC50 at 24 h is above 64 µg/mL.
